PMC4976201, “Total synthesis of teixobactin” (Nature Communications, 2016)

System: Gram-positive bacterial pathogens
Experiment: Antibacterial activity on Gram-positive bacteria, stated in words
Type: cell-based
Settings: MIC on various Gram-positive bacteria strains
Text: Synthetic teixobactin and its analogues were subjected to the assessment of their antimicrobial activities by determining their minimal inhibitory concentration on various Gram-positive bacteria strains including methicillin-susceptible S. aureus strain ATCC29213 and methicillin-resistant S. aureus clinical isolates. […] In this effort, the original stereo-configuration of the amino-acid residue should be thoroughly scrutinized. From our study, it is encouraging to find that Orn-containing teixobactin analogues maintained modest antibacterial activity. Since Orn is readily available as compared with L-allo-End and the synthesis of the Orn-containing cyclic depsipeptide (7–11) gave the best yield among all the analogue syntheses, which is amenable to a large-scale synthesis. Through the above-developed convergent synthetic strategy, various linear hexapeptide (1–6), such as 11, can be readily prepared and ligated to the Orn-containing the cyclic depsi-pentapeptide (7–11) to investigate the contribution of each amino acid in the linear peptide fragment towards the antibacterial activity, which will lead to the optimal structure for the development of teixobactin with improved properties.

| SMILES | antibacterial activity compared with natural teixobactin |
| --- | --- |
| CC[C@@H](C)[C@@H](NC(=O)[C@@H](CCC(N)=O)NC(=O)[C@H](CO)NC(=O)[C@@H](NC(=O)[C@@H](Cc1ccccc1)NC)[C@@H](C)CC)C(=O)N[C@H](C(=O)N[C@@H](CO)C(=O)N[C@H]1C(=O)N[C@@H](C)C(=O)N[C@@H](CCCNC(=N)N)C(=O)N[C@@H]([C@@H](C)CC)C(=O)O[C@H]1C)[C@@H](C)CC [compound 14] | reduced antibacterial activities |
| CC[C@H](C)[C@H](NC(=O)[C@@H](Cc1ccccc1)NC)C(=O)N[C@@H](CO)C(=O)N[C@H](CCC(N)=O)C(=O)N[C@@H](C(=O)N[C@H](C(=O)N[C@@H](CO)C(=O)N[C@H]1C(=O)N[C@@H](C)C(=O)N[C@@H](CCCN)C(=O)N[C@@H]([C@@H](C)CC)C(=O)O[C@H]1C)[C@@H](C)CC)[C@@H](C)CC [compound 16] | reduced antibacterial activities |
